Laboratory results reported in BindingDB's records for doi:10.1016/j.bmcl.2011.10.116 (The University of Queensland, 2012).

target: Beta-lactamase (Pseudomonas aeruginosa, UniProt Q79MP6); assay: Competitive inhibition of Pseudomonas aeruginosa beta-lactamase IMP-1 assessed as formation of 4-nitrothiophenolate at pH 7 using CENTA as chromogenic substrate
Sequence (Q79MP6 whole entry): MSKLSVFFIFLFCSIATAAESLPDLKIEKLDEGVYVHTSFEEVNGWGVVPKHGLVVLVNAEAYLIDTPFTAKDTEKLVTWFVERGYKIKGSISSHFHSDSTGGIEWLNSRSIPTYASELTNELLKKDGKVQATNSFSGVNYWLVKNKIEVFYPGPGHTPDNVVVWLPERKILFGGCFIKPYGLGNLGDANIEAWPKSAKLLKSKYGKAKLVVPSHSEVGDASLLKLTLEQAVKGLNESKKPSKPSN

| Ki [µM] | Compound |
| --- | --- |
| 75 | O=C(c1ccccc1)c1ccc(-c2nnc(S)[nH]2)cc1 |
| 19 | NC(S)=NNC(=O)c1ccccc1 |
| 16 | NC(=S)NNC(=O)c1ccc(C(=O)c2cccc([N+](=O)[O-])c2)cc1 |
| 41 | Cc1ccc(C(=O)c2ccc(C(=O)NNC(N)=S)cc2)cc1 |
| 13 | NC(=S)NNC(=O)c1ccc(C(=O)c2ccccc2)cc1 |
| 14 | NC(=S)NNC(=O)c1ccc(C(=O)c2ccccc2Cl)cc1 |
| 18 | NC(=S)NNC(=O)c1ccc(Cc2ccccc2)cc1 |
| 11 | NC(=S)NNC(=O)c1ccc(C(=O)c2ccc([N+](=O)[O-])cc2)cc1 |
